Here are results for three compounds from patent US20240124479A1, “PYRIMIDINE CARBOXAMIDE COMPOUND AND USE THEREOF” (SHANGHAI MEIYUE BIOTECH DEVELOPMENT CO. LTD, priority 2020, published 2024).

Like-named read-outs stand apart in the source and are kept apart here.

Data set [1] deals with human plasma Vanin-1 (Homo sapiens (Human), UniProt O95497). Put plainly: Human plasma Vanin-1 enzyme activity inhibition assay. In kind it is biochemical. The conditions noted are these: 100-fold diluted human plasma, substrate 25 μM, reading at 30th minute; read-out: hPlasma IC50.
Sequence of human plasma Vanin-1 (O95497 22-513): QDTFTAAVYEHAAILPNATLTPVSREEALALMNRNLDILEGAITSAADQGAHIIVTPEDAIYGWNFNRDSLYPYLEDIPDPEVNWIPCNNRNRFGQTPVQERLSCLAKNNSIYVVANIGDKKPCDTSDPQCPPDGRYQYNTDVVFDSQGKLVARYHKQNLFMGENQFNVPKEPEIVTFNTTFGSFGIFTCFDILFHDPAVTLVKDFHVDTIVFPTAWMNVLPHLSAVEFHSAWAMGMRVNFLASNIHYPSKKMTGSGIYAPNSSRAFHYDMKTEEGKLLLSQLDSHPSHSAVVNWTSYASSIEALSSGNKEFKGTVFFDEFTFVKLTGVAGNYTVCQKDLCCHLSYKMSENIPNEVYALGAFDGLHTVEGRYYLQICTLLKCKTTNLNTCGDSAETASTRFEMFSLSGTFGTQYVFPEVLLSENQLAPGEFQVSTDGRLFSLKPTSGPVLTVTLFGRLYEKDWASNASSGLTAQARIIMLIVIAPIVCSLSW
The target in data set [2] is CYP 1A2 (Homo sapiens (Human), UniProt P05177). In words: CYP enzyme inhibitory activity IC50 assay (cocktail method), 1A2. The conditions noted are these: microsomes 0.1 mg/mL, probe Phenacetin. In kind it is in vitro ADME. An excerpt:
(§1) […]. […] […].

For data set [3], the target named is CYP 2C9 (Homo sapiens (Human), UniProt P11712). Put plainly: CYP enzyme inhibitory activity IC50 assay (cocktail method), 2C9. In kind it is in vitro ADME. The conditions noted are these: microsomes 0.1 mg/mL, probe Diclofenac.
Sequence of CYP 2C9 (P11712 whole entry): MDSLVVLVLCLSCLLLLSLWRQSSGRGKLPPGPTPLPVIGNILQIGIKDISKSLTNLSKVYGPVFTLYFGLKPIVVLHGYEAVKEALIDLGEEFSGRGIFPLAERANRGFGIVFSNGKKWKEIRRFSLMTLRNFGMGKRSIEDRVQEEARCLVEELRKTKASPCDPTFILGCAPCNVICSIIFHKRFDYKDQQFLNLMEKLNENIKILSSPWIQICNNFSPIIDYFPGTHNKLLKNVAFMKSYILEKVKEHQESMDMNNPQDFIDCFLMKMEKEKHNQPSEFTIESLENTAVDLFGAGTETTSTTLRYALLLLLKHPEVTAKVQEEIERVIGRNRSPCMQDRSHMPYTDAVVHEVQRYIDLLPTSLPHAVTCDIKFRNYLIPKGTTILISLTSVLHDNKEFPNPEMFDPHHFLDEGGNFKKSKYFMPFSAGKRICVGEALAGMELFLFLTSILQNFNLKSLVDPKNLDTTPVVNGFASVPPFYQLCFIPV
Description: as §1

The target of data set [4] is CYP 2C19 (Homo sapiens (Human), UniProt P33261). Put plainly: CYP enzyme inhibitory activity IC50 assay (cocktail method), 2C19. In kind it is in vitro ADME. As to conditions: microsomes 0.1 mg/mL, probe Mephenytoin.
Sequence of CYP 2C19 (P33261 whole entry): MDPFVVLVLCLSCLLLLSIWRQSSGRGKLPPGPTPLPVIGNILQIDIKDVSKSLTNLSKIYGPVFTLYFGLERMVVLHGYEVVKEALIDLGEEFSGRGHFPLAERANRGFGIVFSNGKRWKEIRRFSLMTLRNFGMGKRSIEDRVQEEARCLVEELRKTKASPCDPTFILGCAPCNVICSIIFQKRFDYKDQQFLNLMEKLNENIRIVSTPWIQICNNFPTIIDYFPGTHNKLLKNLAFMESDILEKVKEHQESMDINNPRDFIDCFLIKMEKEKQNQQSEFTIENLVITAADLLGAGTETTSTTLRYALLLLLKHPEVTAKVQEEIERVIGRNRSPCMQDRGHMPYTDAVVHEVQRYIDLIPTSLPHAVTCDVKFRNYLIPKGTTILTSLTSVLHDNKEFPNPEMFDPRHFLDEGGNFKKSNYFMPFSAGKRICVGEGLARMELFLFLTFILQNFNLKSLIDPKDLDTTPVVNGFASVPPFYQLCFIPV
Description: as §1

Data set [5] addresses CYP 2D6 (Homo sapiens (Human), UniProt P10635). Put plainly: CYP enzyme inhibitory activity IC50 assay (cocktail method), 2D6. In kind it is in vitro ADME. As to conditions: microsomes 0.1 mg/mL, probe Dextromethorphan.
Description: as §1

Data set [6] can be described thus: In vitro liver microsome stability assay, human. As to conditions: liver microsomes, read-out: T1/2 Human. In kind it is in vitro ADME. Here is the method:
(§2) PBS Buffer was 50 mM K2HPO4 buffer.
(In general: Liver microsomes are vesicles of endoplasmic reticulum, rich in cytochrome P450 enzymes.)

Data set [7] can be described thus: In vitro liver microsome stability assay, mouse. In kind it is in vitro ADME. As to conditions: liver microsomes, read-out: T1/2 Mouse. The procedure:
as §2

The nature of data set [8]: In vitro liver microsome stability assay, rat. In kind it is in vitro ADME. The conditions noted are these: liver microsomes, read-out: T1/2 Rat. Here is the method: as §2
The nature of data set [9]: In vivo pharmacokinetic evaluation in mice. As to conditions: for AUC(0-t): read-out: Area under the curve AUC0-7 h; for half-life: read-out: Half-life T1/2 (converted); for Cmax: read-out: Peak concentration Cmax. Also noted: clearance: unit not given here. An excerpt: The vehicle used in the experiment was: DMSO: Solutol: PBS=5%:25%:70% (v/v/v). Preparation method: The required compound was weighed accurately, added with a certain volume of DMSO in a certain proportion, vortex-mixed until completely dissolved, then added successively with Solutol and PBS according to the above proportion, and mixed well. The vehicles used in the intravenous (iv) administration group and oral (po) administration group were the same vehicles in the experiment. The intravenous dose was 2 mpk and the oral dose was 5 mpk. Experimental blood collection time points: IV group: 0.083, 0.25, 0.5, 1, 2, 4, 7, 24 h. PO group: 200 μL of whole blood was collected from jugular vein at each time point of 0.25, 0.5, 1, 2, 4, 7 and 24 h, anticoagulated with EDTA-K2, and immediately centrifuged at 4000 rpm for 5 minutes at 4° C. The supernatant was taken and the samples were frozen and stored in a refrigerator at −80° C. Processing of plasma samples: the sample was precipitated with ACN/MeOH (1:1, v/v) precipitant containing internal standard, then centrifuged at 14000 rpm for 5 minutes. The supernatant was taken into LC-MS/MS (AB Triple Quard 5500) for analysis to obtain plasma concentrations, and parameters were calculated by the non-compartmental model of Winnolin 8.1 version.

Data set [10] relates to CYP enzymes. In words: CYP enzyme inhibition, overall statement on tested CYP enzymes. In kind it is in vitro ADME. The conditions noted are these: 1A2, 2C9, 2C19, 2D6, 3A4; result in words.
Description: as §1

A short description of data set [11]: In vitro liver microsome stability, overall statement. In kind it is in vitro ADME. The conditions noted are these: human, mouse, rat liver microsomes; result in words. The procedure: as §2
The target of data set [12] is CYP3A4 (Homo sapiens, UniProt P08684). In words: in vitro. As to conditions: microsomes.
Sequence of CYP3A4 (P08684 2-503 limits assumed): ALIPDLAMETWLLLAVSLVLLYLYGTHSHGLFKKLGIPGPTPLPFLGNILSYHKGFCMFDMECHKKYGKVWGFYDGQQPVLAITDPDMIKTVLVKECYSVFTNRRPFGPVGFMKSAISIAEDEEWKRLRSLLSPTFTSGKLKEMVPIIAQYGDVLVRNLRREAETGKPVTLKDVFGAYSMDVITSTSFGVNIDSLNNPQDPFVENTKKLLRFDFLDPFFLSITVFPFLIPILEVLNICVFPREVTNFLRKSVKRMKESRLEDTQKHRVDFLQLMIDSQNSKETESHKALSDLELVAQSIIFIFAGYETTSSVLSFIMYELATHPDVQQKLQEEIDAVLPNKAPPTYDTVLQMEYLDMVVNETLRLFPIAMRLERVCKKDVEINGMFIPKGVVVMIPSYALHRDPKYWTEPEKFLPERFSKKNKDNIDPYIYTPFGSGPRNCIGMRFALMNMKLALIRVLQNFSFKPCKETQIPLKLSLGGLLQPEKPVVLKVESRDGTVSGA
Where [13] appears, read: mouse, plasma, 2 mg/kg, intravenous injection, 2 mpk.
Where [14] appears, read: mouse, plasma, po, 5 mg/kg, intragastric administration, 5 mpk.

Sequence of CYP 2D6 (P10635 whole entry): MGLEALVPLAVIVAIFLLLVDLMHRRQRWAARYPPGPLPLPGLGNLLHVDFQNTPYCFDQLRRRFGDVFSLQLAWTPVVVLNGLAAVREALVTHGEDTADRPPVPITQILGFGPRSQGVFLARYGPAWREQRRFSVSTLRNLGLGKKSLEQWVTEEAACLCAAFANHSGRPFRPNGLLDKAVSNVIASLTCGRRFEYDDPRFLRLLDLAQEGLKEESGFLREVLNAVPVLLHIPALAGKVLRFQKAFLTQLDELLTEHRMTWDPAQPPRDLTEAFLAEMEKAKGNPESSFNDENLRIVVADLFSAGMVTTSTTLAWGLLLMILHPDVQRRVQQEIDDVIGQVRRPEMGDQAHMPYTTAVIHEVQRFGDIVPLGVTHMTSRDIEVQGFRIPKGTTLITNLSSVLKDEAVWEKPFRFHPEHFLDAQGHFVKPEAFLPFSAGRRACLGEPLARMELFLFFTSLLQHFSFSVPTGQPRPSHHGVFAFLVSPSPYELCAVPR
Sequence of CYP 1A2 (P05177 whole entry): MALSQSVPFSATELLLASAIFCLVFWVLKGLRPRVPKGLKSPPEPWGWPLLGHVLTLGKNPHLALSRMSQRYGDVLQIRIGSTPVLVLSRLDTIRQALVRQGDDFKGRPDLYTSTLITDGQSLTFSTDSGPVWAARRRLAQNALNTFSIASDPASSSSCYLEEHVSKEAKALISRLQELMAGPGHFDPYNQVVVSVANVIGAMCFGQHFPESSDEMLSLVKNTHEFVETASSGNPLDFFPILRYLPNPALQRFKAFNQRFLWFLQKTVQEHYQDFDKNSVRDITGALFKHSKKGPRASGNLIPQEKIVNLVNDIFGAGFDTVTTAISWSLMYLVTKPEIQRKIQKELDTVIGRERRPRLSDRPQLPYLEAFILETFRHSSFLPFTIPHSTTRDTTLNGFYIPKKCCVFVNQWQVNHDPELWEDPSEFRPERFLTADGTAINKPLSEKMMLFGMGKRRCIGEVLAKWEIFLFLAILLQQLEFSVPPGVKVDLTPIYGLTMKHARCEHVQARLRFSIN

Broadly, the IC50 is the concentration at which inhibition is half-maximal. Take `CC(Nc1ncc(C(=O)N2CCC3(CCOCC3)C2)cn1)c1ccccc1` (stereo not shown) [Compound 6]: the IC50 in data set [1] turned out to be 1.6 nM.

With `O=C(c1cnc(NCc2ccc(F)cc2F)nc1)N1CCC2(CCOCC2)C1` [Compound 12], in [1], the 50% inhibitory concentration (IC50) was 7.9 nM.

As usually defined, the Vd is the apparent volume that relates the amount in the body to the concentration in plasma or blood. Broadly, the bioavailability is dose-corrected exposure relative to a reference, in per cent. With `CC(=O)N(C)[C@H]1CCN(C(=O)c2cnc(N[C@H](C)c3ccc(C(F)(F)F)cc3F)nc2)C1` [Compound 41-P2], the IC50 is above 50 µM in data set [2], 45.6 µM in [3], above 50 µM in [4] and above 50 µM in data set [5]. In addition, the half-life at 1 μM is above 280 min in data set [6], 98.8 min in data set [7] and 198 min in data set [8]. In [9] (intragastric administration, 5 mpk), the “Area under the curve AUC0-7 h” value was 10656.5 ng·h/mL. Also, the AUC(0-t) in data set [9] (setting [13]) is 4960 ng·h/mL; in data set [9] (setting [14]), 10700 ng·h/mL. For the same compound, the clearance in data set [9] (mouse, plasma, 2 mg/kg, intravenous injection, 2 mpk, read-out: Clearance rate CL (converted)) was 0.112. In addition, in [9] (mouse, plasma, 2 mg/kg, intravenous injection, 2 mpk, read-out: Distributed solvent Vd), the Vd was found to be 1.26 L/kg. Further, the half-life was 168 min in data set [9] (setting [13]) and 336 min in data set [9] (setting [14]). Moreover, the results for the Cmax in data set [9] (setting [13]) and in [9] (setting [14]) were 2140 ng/mL and 1540 ng/mL, respectively. In addition, in [9] (mouse, plasma, oral, intragastric administration 5 mpk vs intravenous 2 mpk, read-out: Bioavailability F %), the bioavailability is 86%. Besides, the “inhibitory effect on the tested CYP enzymes” value in data set [10] is on record as “basically no inhibitory effect”. Moreover, the liver microsome stability result in data set [11] is “remarkable stability”. In data set [12], this compound had an IC50 at 10 min above 50 µM.
